Values of other authors, collected in the CATMoS acute toxicity set (Mansouri et al. 2021).
Where “and” joins values, the source holds several entries; their conditions need not be identical. Identical values can stand only once.

Assay: rat acute oral toxicity
Settings: in vivo
Text: […]The data set underlying the modeling effort for this project was initially compiled by NICEATM and U.S. EPA’s CCTE. Briefly, LD50 data were collected from rat acute oral systemic toxicity tests, including limit tests, ranges/confidence intervals, and discrete LD50 values. The full data set included 21,200 LD50 entries for 15,688 substances. […] Data were reviewed to ensure that LD50 values with obvious errors in the extracted data such as unit conversion errors (e.g., comma and decimal separator misplacements) were either fixed or removed. After this review, 16,209 LD50 values remained. Many of the chemicals represented had multiple LD50 entries, requiring that a single representative value per Chemical Abstracts Service Registry Number (CASRN) identifier be defined to facilitate modeling efforts. Based on ATWG feedback and to define the representative LD50 as a protective value while accounting for the distribution across multiple LD50s, the median of the lowest quartile was computed using only discrete LD50 values (omitting limit test data and range and confidence interval data). A detailed summary of the data compilation is available online on the NICEATM webpage dedicated to the collaborative modeling project (NTP 2020).
[…][…] For categorical designations, limit test and range/confidence interval LD50 data were integrated wherever possible. As such, the number of chemicals with end point values/calls varies across the modeling end points (Table 3) based on whether chemicals had representative LD50 values and/or other data. If a chemical had both, the representative value was used to determine categorical calls rather than limit test data. Some data were useable only for certain end points and categories depending on the thresholds. For example, ranges that spanned multiple hazard categories were considered only for the binary (very toxic/nontoxic) end points and omitted from rendering a determination for hazard category assignment.
[…]The final data set comprising 11,992 chemicals was split into training and evaluation sets […], respectively. This process was performed semirandomly by ordering chemicals based on the five end points (categorical and continuous LD50 values) and partitioning every fourth record into the evaluation set accordingly. This approach was taken to ensure an equivalent distribution of the LD50 values and the different hazard categories between the training and the evaluation sets without supervised sampling of the chemicals based on structures (Figure 1A). The sources of the chemical structures were also kept equivalent between the two sets, with chemical structures obtained from DSSTox, being the highest quality, representing over 75% of each set (Figure 1B).

| Compound | LD50 |
| --- | --- |
| O=C(O)CSc1nc(-c2ccccc2)ns1 | 500 mg/kg |
| CCC(C)C(CN(C)C)c1ccc(OC)c(Cl)c1 (stereo not given) | 454 mg/kg |
| O=P(O)(O)CN(CP(=O)(O)O)CP(=O)(O)O | 17800 mg/kg |
| CCOCC(Cl)C(OCC)OCC (stereo not given) | 1320 mg/kg |
| CN(C)CCOc1ccccc1Cc1ccccc1 | 1470 mg/kg and 1400 mg/kg |
| O=C(OCC(O)CO)c1ccccc1Nc1ccnc2c(C(F)(F)F)cccc12 (stereo not given) | 535 mg/kg |
| CNC(=O)Oc1cccc2c1OC(C)(C)O2 | 40 mg/kg |
| CN1CCCC(=C(c2cccs2)c2cccs2)C1 | 10000 mg/kg |
| O=C(Cc1ccc(-c2ccccc2)cc1)OCCF | 6 mg/kg |
| CN(C)S(=O)(=O)CCNC(=O)N(CCCl)N=O | 39 mg/kg |
| CCCCCCCCCCCCN=C([O-])C[N+](C)(C)Cc1ccccc1 | 100 mg/kg |
| CN(C)N=Nc1ccc(-c2ccccc2)cc1 | 347 mg/kg |
| CCCCN(C)N=O | 130 mg/kg |
| CCOC(C1=NCC(CC)(CC)CN1)c1ccccc1 (stereo not given) | 250 mg/kg |
| CCC1(CC)Oc2cccc(OC(=O)NC)c2O1 | 46 mg/kg |
| O=C(OCCCOC(=O)c1ccccc1)c1ccccc1 | 24000 mg/kg |
| CC(=CC(O)(C(F)(F)F)C(F)(F)F)CC(O)(C(F)(F)F)C(F)(F)F | 18 mg/kg |
| CNC(=O)C(C)SCCSP(=O)(OC)OC (stereo not given) | 64 mg/kg |
| CN(C)CC(=O)N1Cc2ccccc2CC2CCCCC21 (stereo not given) | 1400 mg/kg |
| Cc1ccsc1/C=C/C1=NCCCN1C | 926 mg/kg |
| CCOC(=O)N(c1cccc(C(=O)c2ccccc2)c1)S(=O)(=O)C(F)(F)F | 4700 mg/kg |
| CCCCCCC(=O)OCCOCCOCCOCCOC(=O)CCCCCC | 25000 mg/kg |
| COP(=S)(OC)SCN1C(=O)CCC1=O | 7 mg/kg |
| CCCCOCCOCCOCCCC | 3900 mg/kg |
| FC(F)(F)C(Cl)(Cl)C(Cl)(Cl)C(F)(F)F | 800 mg/kg |

| Compound | LD50 |
| --- | --- |
| CC[Se][Se]CC | 90 mg/kg |
| O=S(=O)(O)c1ccc(N=Nc2ccc(N=Nc3c(O)ccc4ccccc34)cc2)cc1 | 7740 mg/kg |
| CN(C)C(=O)N(C)N=O | 240 mg/kg |
| CC(O)COS(C)(=O)=S (stereo not given) | 794 mg/kg |
| O=C(O)CCCc1ccc(N(CCCl)CCCl)cc1 | 76 mg/kg |
| CN(C)CC/C=C1\c2ccccc2COc2ccccc21 | 147 mg/kg |
| CCC1(CC)COC(=O)NC1=O | 71 mg/kg |
| COc1ccc(C)cc1N | 1450 mg/kg |
| CC(=O)Nc1cc(Cl)ccc1Cl | 4100 mg/kg |
| O=C1CCc2cccc3c2N1CC3 | 321 mg/kg |
| COC(C)CO (stereo not given) | 5710 mg/kg |
| CCCN(CCC)C(=O)C(CCC(=O)NCCCOC(=O)Cc1c(C)n(C(=O)c2ccc(Cl)cc2)c2ccc(OC)cc12)NC(=O)c1ccccc1 (stereo not given) | 370 mg/kg |
| CN(C)CCOC1=Cc2ccccc2Sc2ccc(Cl)cc21 | 306 mg/kg |
| CCN(CC)CCC(=O)N1c2ccccc2Sc2ccc(C(F)(F)F)cc21 | 860 mg/kg |
| CC(C)CC(C)CC(=O)O (stereo not given) | 900 mg/kg |
| OCCC1CCN(CCC=C2c3ccc(F)cc3Sc3ccc(C(F)(F)F)cc32)CC1 | 1.5 mg/kg |
| CCNc1ccc(C(=C2C=CC(=[N+](C)C)C=C2)c2ccc(N(C)C)cc2)c2ccccc12 | 960 mg/kg |
| NC(N)=NCC1CCCCCCN1 (stereo not given) | 3550 mg/kg |
| Cc1ccccc1NCCO | 2200 mg/kg |
| O=S(=O)(O)c1cccc(Nc2nc(Nc3ccc(C=Cc4ccc(Nc5nc(Nc6cccc(S(=O)(=O)O)c6)nc(N(CCO)CCO)n5)cc4S(=O)(=O)O)c(S(=O)(=O)O)c3)nc(N(CCO)CCO)n2)c1 | 1960 mg/kg |
| CCC(C)C1(CC)C(O)=NC(=O)N=C1O (stereo not given) | 78 mg/kg |
| Cc1c2ccccc2c(C)c2c1ccc1ccccc12 | 327 mg/kg |
| CN1CCOC(c2ccccc2)c2ccccc2C1 (stereo not given) | 80 mg/kg |
| Cc1ncc(CS)c(CO)c1O | 3000 mg/kg |
| CCB(CC)CC | 235 mg/kg |
